Measured values from ChEMBL document CHEMBL1201862, “PubChem BioAssay data set” (2004).
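Method: 48-hour compound exposure of cells in 96-well plates, five concentrations, linear interpolation of endpoints. GI50 is the concentration that inhibits growth by half.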 Activity calls are given as the source filed them. Cut-off read from the data, not from the text of the source: active = GI50 up to about 1.1 µM and inactive = higher.

How the values were obtained:
Test in all cases: inhibition of tumour cell growth, NCI panel, 48 h
786-0 = tested on: 786-0
A498 = tested on: A498
ACHN = tested on: ACHN
COLO 205 = tested on: COLO 205
HL-60 = tested on: HL-60
M14 = tested on: M14
NCI-H23 = tested on: NCI-H23
OVCAR-4 = tested on: OVCAR-4
OVCAR-8 = tested on: OVCAR-8
RXF 393 = tested on: RXF 393
SK-MEL-28 = tested on: SK-MEL-28
TK-10 = tested on: TK-10
U-251 = tested on: U-251
UACC-62 = tested on: UACC-62
UO-31 = tested on: UO-31
HOP-92 = tested on: HOP-92

Measured: GI50

CCOP(=O)(OCC)C1CCCCOC1=O (stereo unspecified)
inactive: 786-0 > 100 µM | A498 > 100 µM | ACHN > 100 µM | COLO 205 > 100 µM | HL-60 > 100 µM | M14 > 100 µM | NCI-H23 > 100 µM | OVCAR-4 > 100 µM | OVCAR-8 > 100 µM | RXF 393 > 100 µM | SK-MEL-28 > 100 µM | TK-10 > 100 µM | U-251 > 100 µM | UACC-62 > 100 µM | UO-31 > 100 µM

CP1(=O)CCCCC1
inactive: 786-0 > 100 µM | ACHN > 100 µM | COLO 205 > 100 µM | HL-60 > 100 µM | HOP-92 > 100 µM | M14 > 100 µM | NCI-H23 > 100 µM | OVCAR-4 > 100 µM | OVCAR-8 > 100 µM | RXF 393 > 100 µM | SK-MEL-28 > 100 µM | TK-10 > 100 µM | U-251 > 100 µM | UACC-62 > 100 µM | UO-31 > 100 µM

CC1=C(C(=O)CC(=O)C(=O)Nc2ccccc2)Sc2ccccc2N1
inactive: 786-0 > 100 µM | A498 > 100 µM | ACHN > 100 µM | COLO 205 > 100 µM | HL-60 > 100 µM | HOP-92 2.84 µM | M14 > 100 µM | NCI-H23 > 100 µM | OVCAR-4 > 100 µM | OVCAR-8 > 100 µM | RXF 393 > 100 µM | SK-MEL-28 > 100 µM | U-251 > 100 µM | UACC-62 > 100 µM | UO-31 > 100 µM

O=C(/C=C/c1ccc(Cl)c(Cl)c1)c1ccc(F)cc1
inactive: 786-0 15.5 µM | A498 50.9 µM | ACHN 17.8 µM | COLO 205 23.3 µM | HL-60 11.9 µM | HOP-92 32.2 µM | M14 16.9 µM | NCI-H23 29.8 µM | OVCAR-4 19.2 µM | OVCAR-8 16.7 µM | SK-MEL-28 18.6 µM | TK-10 25.4 µM | U-251 13 µM | UACC-62 14.7 µM | UO-31 > 100 µM

Cc1cc2c(cc1C)[n+]([O-])c(C(=O)CC(=O)C(=O)Nc1c(C(C)C)cccc1C(C)C)c(C)[n+]2[O-]
inactive: 786-0 > 100 µM | A498 > 100 µM | ACHN > 100 µM | COLO 205 > 100 µM | HOP-92 > 100 µM | M14 > 100 µM | NCI-H23 > 100 µM | OVCAR-4 > 100 µM | OVCAR-8 > 100 µM | RXF 393 > 100 µM | SK-MEL-28 > 100 µM | TK-10 > 100 µM | U-251 > 100 µM | UACC-62 > 100 µM | UO-31 > 100 µM

COC(=O)/C(=C\c1ccc(N(CCC#N)CCC#N)cc1)NC(=O)c1cc([N+](=O)[O-])ccc1Cl
inactive: 786-0 > 100 µM | A498 > 100 µM | ACHN > 100 µM | COLO 205 > 100 µM | M14 > 100 µM | NCI-H23 > 100 µM | OVCAR-4 > 100 µM | OVCAR-8 > 100 µM | RXF 393 > 100 µM | SK-MEL-28 > 100 µM | TK-10 > 100 µM | U-251 > 100 µM | UACC-62 > 100 µM | UO-31 > 100 µM

Cc1cc(N(CCC#N)CCC#N)ccc1/C=C(/NC(=O)/C=C/c1ccccc1)C(N)=O
inactive: 786-0 > 100 µM | A498 > 100 µM | ACHN > 100 µM | COLO 205 > 100 µM | HL-60 > 100 µM | M14 > 100 µM | NCI-H23 > 100 µM | OVCAR-8 > 100 µM | RXF 393 4.19 µM | SK-MEL-28 > 100 µM | TK-10 > 100 µM | U-251 > 100 µM | UACC-62 > 100 µM | UO-31 > 100 µM

OCC(O)C(O)C(O)c1nn(-c2ccccc2)c2nc3cc(Cl)c(Cl)cc3nc12 (stereo unspecified)
inactive: 786-0 32 µM | ACHN 25.1 µM | COLO 205 44.1 µM | HL-60 27 µM | M14 17.7 µM | NCI-H23 49.8 µM | OVCAR-4 35.6 µM | OVCAR-8 70.8 µM | RXF 393 19.9 µM | SK-MEL-28 48 µM | TK-10 36.1 µM | U-251 70.5 µM | UACC-62 28.8 µM | UO-31 37.2 µM

OC12c3ccccc3C1CCCCC2N1CCCC1 (stereo unspecified)
inactive: 786-0 > 100 µM | ACHN > 100 µM | COLO 205 > 100 µM | HL-60 > 100 µM | M14 > 100 µM | NCI-H23 > 100 µM | OVCAR-4 > 100 µM | OVCAR-8 > 100 µM | RXF 393 > 100 µM | SK-MEL-28 > 100 µM | TK-10 > 100 µM | U-251 > 100 µM | UACC-62 > 100 µM | UO-31 > 100 µM
